Results reported in paper PMC6940354, “Comparative Assessment of the New PDE7 Inhibitor – GRMS-55 and Lisofylline in Animal Models of Immune-Related Disorders: A PK/PD Modeling Approach” (Pharmaceutical Research, 2020).
In brackets after ≈: the same amount, converted by molar mass. Like-named read-outs stand apart in the source and are kept apart here.

How the values were obtained:
[1] = system: TNF-α plasma levels in male Wistar rats with LPS-induced endotoxemia; assay: LPS-induced endotoxemia in rats, PK/PD model of plasma TNF-α; format: in vivo, rat; details: for IC50: Rattus norvegicus, iv; for activity in inhibiting TNF-α release in vivo, times lower than that of rolipram: ratio of IC50 values to rolipram
Description: Male Wistar rats were implanted with catheters (SAI Infusion Technologies, USA) into the jugular vein and after a two-day recovery period they were administered with LPS dissolved in saline at a dose of 1 mg kg ^−1 into the tail vein simultaneously with one of the investigated compounds. […] The doses of the compounds were selected based on the literature data or results of our previous experiments. Each control group received LPS at the same IV dose and an appropriate volume of corresponding vehicle. […] The plasma samples were collected and stored at −80°C until analysis.
(§1) TNF-α levels in LPS-stimulated rat blood in vitro and in rat plasma samples from the in vivo studies were analyzed by the Rat TNF-α Quantikine ELISA Immunoassay Kit (R&D Systems, USA) according to the manufacturer’s instructions. The assay was linear at the range of 12.5–800 pg mL^−1. Levels of TNF-α in mice serum were measured by ELISA Kits for Tumor Necrosis Factor Alpha (Cloud-Clone Corp., USA). This assay was linear at the range of 15.6–1000 pg mL^−1. Absorbance was measured at 450 nm using a POLARstar Omega multi-mode microplate reader (BMG LABTECH, Germany).
PK/PD and PK/PD/DIS progression models were developed considering the mechanism of action of the investigated compounds, the mechanisms of disease progression in the case of CIA, and the subsequent stages leading to TNF-α release in the case of LPS-induced endotoxemia. Various numbers of transit compartments were tested during development of the models, and the final models were chosen based on the goodness-of-fit criteria, such as AIC, SBC, a visual inspection of the fitting, and parameter precision. Estimated values of pharmacokinetic parameters were fixed during PK/PD and PK/PD/DIS progression model fitting procedures. […] PK/PD and PK/PD/DIS progression modeling were performed in ADAPT 5 software using the weighted least squares algorithm.
Therefore, as a result of PK/PD analysis, three sets of pharmacodynamic parameters were obtained based on the data from the three individual experiments.
The applied model is a modified indirect response model ([19]) with implemented transit compartments (T1-T4) that describe the delay of the observed pharmacodynamic response. In this scheme τ is the mean transit time, kin is the time limited (from 0 to tlag) zero-order rate constant of production of a TNF-α precursor (e.g., TNF-α mRNA). Different numbers of transit compartments were tested during the model development, but the best fit was observed using four transit compartments.
All Imax values were fixed to 1.

[2] = system: ConA-induced hepatitis in BALB/c mice; assay: ConA-induced hepatitis in mice; format: in vivo, mouse; details: IP 30 min before ConA 20 mg kg^−1 IV, 8 h after ConA, rolipram 10 mg kg^−1, GRMS-55 and (±)-LSF 50 mg kg^−1, vs control group
Description: ConA was dissolved in an appropriate volume of saline for injections to obtain a concentration of 2 mg mL^−1. Each of the investigated compounds was dissolved in a vehicle composed of DMSO and PEG 400 mixed at a ratio of 1:9 (v/v). Thirty minutes before ConA administration, mice were injected intraperitoneally (IP) with the investigated compounds dissolved in the vehicle at a dose of 50 mg kg^−1 or with the corresponding volume of vehicle alone in the case of control group. ConA was administered by IV route at a dose of 20 mg kg^−1 and 8 h later mice were sacrificed. Blood samples were harvested from each individual and allowed to clot for 30 min at room temperature. Subsequently, serum was separated by centrifugation (3000 x g, 10 min), collected, and stored at −80°C until analysis.
as §1
Serum […] (AST) and alanine transaminase (ALT) activity was analyzed using the chemistry analyzer BS-800 (Shenzhen Mindray Bio-medical Electronics Co. ltd, China).

[3] = system: collagen-induced arthritis (CIA) in female Lewis rats; assay: Body weight, clinical score and paw areas in CIA rats; format: in vivo, rat; details: CIA rats vs control group; rolipram at all assessments post 20th day, (±)-LSF at 26, 33, and 36 day
Description: At a day 0 of the experiment animals were subcutaneously (SC) injected at the base of the tail with 200 μL of the emulsion using a 27 gauge × 5/8″ needle and Hamilton syringe. At day 7 after the initial immunization, a booster injection with 100 μL of emulsion was performed. Ninety % of rats developed symptoms of disease (paw swelling >150% of day 0) at day 20 of the experiment. At this day, diseased animals were randomly divided into five groups (n = 6). […] One investigated group received (±)-LSF dissolved in saline at an SC dose of 80 mg kg^−1 once daily. The corresponding control groups were administered with appropriate volumes of vehicles IP or SC. At day 40 animals were sacrificed. Hind paws of rats were taken and immersed into 4% buffered formalin solution for a subsequent histological analysis. Blood samples were collected and allowed to clot for 20 min and then centrifuged at 2000 x g for 15 min. Serum samples were collected and frozen at -80°C.
Body weight and paw size were measured, and clinical score was assessed at days 0, 5, 7, 11, 15, 18, 20, 22, 26, 30, 33, and 36 after the first immunization. Body weight of each rat was normalized to the body weight of the same rat at the day of the first immunization. Disease progression was evaluated by a qualitative clinical score (CS) as described elsewhere (1), where 0 – no symptoms of the disease, such as redness or swelling, 1 – mild, but definite redness and swelling, 2 – moderate redness and swelling, 3 – severe redness and swelling, and 4 – maximally inflamed limbs.

[4] = read-out: IC50, concentration of compound producing 50% of Imax (inhibition of TNF-α release in vivo), Final estimate (CV%), plasma concentration, PK/PD model, Imax fixed to 1, male Wistar rats, LPS 1 mg kg^−1 IV, IV GRMS-55 20, rolipram 5, (±)-LSF and PTX 40 and 80 mg kg^−1

Compound	IC50 ([1]; read-out: IC50, concentration of compound producing 50% of Imax (inhibition of TNF-α release in vivo), Final estimate (CV%))	TNF-α release in mice serum (result in words) [2]	activities of transaminases (ALT, AST) in mice sera (result in words) [2]	clinical score values (result in words) [3]	IC50 [1, 4]	potency in inhibiting TNF-α release in vivo, times stronger than PTX ([1]; ratio of IC50 values)	activity in inhibiting TNF-α release in vivo, times lower than that of rolipram [1]
COc1ccc(C2CNC(=O)C2)cc1OC1CCCC1 (stereo not drawn) [Rolipram, rolipram]	0.36 µg/mL (≈ 1.31 µM)	most potently inhibited TNF-α release	significantly reduced	significantly lower	–	–	–
CC(O)CCCCn1c(=O)c2c(ncn2C)n(C)c1=O (racemic) [(±)-LSF, lisofylline]	–	significantly reducing TNF-α levels	failed to decrease the activities of transaminases	significantly lower	5.8 µg/mL (≈ 20.7 µM)	~ 2.4 times	~ 16 times
Cn1c(=O)c2c(nc(NCCc3ccccc3)n2CCCC(=O)NN=Cc2ccccc2O)n(C)c1=O [GRMS-55, 4-(1,3-Dimethyl-2,6-dioxo-8-(phenethylamino)-2,3,6,7-tetrahydro-1H-purin-7-yl)-N′-(2-hydroxybenzylidene)butanehydrazide]	–	most potently inhibited TNF-α release	significantly reduced	did not decreased significantly	~1.1 µg/mL (≈ 2.18 µM)	–	~ 3 times
